Several values for one entry are separate records, joined by “and”; a condition that tells them apart may be missing. Equal entries are not always repeated. ± gives the expanded uncertainty stated by the source.
Assay: mn = molality of the nth substance listed, in mol/kg
Settings: 101 kPa, Liquid; for mass density: Vibrating tube method; for speed of sound: Sing-around technique in a fixed-path interferometer

OCC(CO)(CO)CO [2,2-bis(hydroxymethyl)-1,3-propanediol] + O
Settings	mass density	speed of sound
273.15 K, m1 = 0.1002	1003.54 ± 0.035 kg/m3 and 1003.55 ± 0.035 kg/m3	–
273.15 K, m1 = 0.1501	1005.3 ± 0.036 kg/m3 and 1005.29 ± 0.036 kg/m3	–
273.15 K, m1 = 0.2001	1007.05 ± 0.037 kg/m3 and 1007.04 ± 0.037 kg/m3	–
273.15 K, m1 = 0.2503	1008.77 ± 0.038 kg/m3	–
273.15 K, m1 = 0.3005	1010.48 ± 0.039 kg/m3	–
273.15 K, m1 = 0.35	1012.15 ± 0.04 kg/m3 and 1012.16 ± 0.04 kg/m3	–
278.15 K, m1 = 0.1002	–	1432.6 ± 0.72 m/s and 1432.7 ± 0.72 m/s
278.15 K, m1 = 0.1501	–	1435.8 ± 0.73 m/s
278.15 K, m1 = 0.2001	–	1439 ± 0.73 m/s
278.15 K, m1 = 0.2503	–	1442.1 ± 0.73 m/s and 1442.2 ± 0.73 m/s
278.15 K, m1 = 0.3005	–	1445.3 ± 0.73 m/s
278.15 K, m1 = 0.35	–	1448.3 ± 0.73 m/s and 1448.4 ± 0.73 m/s
283.15 K, m1 = 0.1002	1003.23 ± 0.035 kg/m3	1453.3 ± 0.73 m/s
283.15 K, m1 = 0.1501	1004.96 ± 0.036 kg/m3	1456.2 ± 0.73 m/s and 1456.3 ± 0.73 m/s
283.15 K, m1 = 0.2001	1006.68 ± 0.037 kg/m3 and 1006.69 ± 0.037 kg/m3	1459.2 ± 0.73 m/s
283.15 K, m1 = 0.2503	1008.38 ± 0.038 kg/m3 and 1008.39 ± 0.038 kg/m3	1462.2 ± 0.74 m/s
283.15 K, m1 = 0.3005	1010.07 ± 0.039 kg/m3 and 1010.08 ± 0.039 kg/m3	1465.1 ± 0.74 m/s
283.15 K, m1 = 0.35	1011.72 ± 0.04 kg/m3 and 1011.73 ± 0.04 kg/m3	1468 ± 0.74 m/s
288.15 K, m1 = 0.1002	1002.59 ± 0.035 kg/m3	1471.6 ± 0.74 m/s
288.15 K, m1 = 0.1501	1004.3 ± 0.036 kg/m3	1474.4 ± 0.74 m/s
288.15 K, m1 = 0.2001	1006 ± 0.037 kg/m3 and 1006.01 ± 0.037 kg/m3	1477.2 ± 0.74 m/s
288.15 K, m1 = 0.2503	1007.68 ± 0.038 kg/m3 and 1007.69 ± 0.038 kg/m3	1479.9 ± 0.74 m/s
288.15 K, m1 = 0.3005	1009.35 ± 0.038 kg/m3 and 1009.36 ± 0.038 kg/m3	1482.6 ± 0.74 m/s and 1482.7 ± 0.74 m/s
288.15 K, m1 = 0.35	1010.98 ± 0.039 kg/m3 and 1010.99 ± 0.039 kg/m3	1485.3 ± 0.75 m/s and 1485.4 ± 0.75 m/s
293.15 K, m1 = 0.1002	1001.66 ± 0.034 kg/m3	1487.7 ± 0.74 m/s
293.15 K, m1 = 0.1501	1003.35 ± 0.035 kg/m3	1490.3 ± 0.74 m/s
293.15 K, m1 = 0.2001	1005.04 ± 0.036 kg/m3 and 1005.03 ± 0.036 kg/m3	1492.9 ± 0.75 m/s and 1492.8 ± 0.75 m/s
293.15 K, m1 = 0.2503	1006.7 ± 0.037 kg/m3 and 1006.71 ± 0.037 kg/m3	1495.5 ± 0.75 m/s
293.15 K, m1 = 0.3005	1008.35 ± 0.038 kg/m3	1498 ± 0.75 m/s and 1498.1 ± 0.75 m/s
293.15 K, m1 = 0.35	1009.97 ± 0.039 kg/m3	1500.6 ± 0.75 m/s
298.15 K, m1 = 0.1002	1000.47 ± 0.034 kg/m3	1501.7 ± 0.75 m/s
298.15 K, m1 = 0.1501	1002.14 ± 0.035 kg/m3 and 1002.15 ± 0.035 kg/m3	1504.1 ± 0.75 m/s and 1504.2 ± 0.75 m/s
298.15 K, m1 = 0.2001	1003.82 ± 0.036 kg/m3	1506.6 ± 0.75 m/s
298.15 K, m1 = 0.2503	1005.47 ± 0.037 kg/m3	1509 ± 0.75 m/s and 1509.1 ± 0.75 m/s
298.15 K, m1 = 0.3005	1007.1 ± 0.038 kg/m3 and 1007.11 ± 0.038 kg/m3	1511.5 ± 0.75 m/s
298.15 K, m1 = 0.35	1008.7 ± 0.039 kg/m3 and 1008.71 ± 0.039 kg/m3	1513.9 ± 0.76 m/s
303.15 K, m1 = 0.1002	999.044 ± 0.034 kg/m3 and 999.045 ± 0.034 kg/m3	1513.8 ± 0.75 m/s
303.15 K, m1 = 0.1501	1000.71 ± 0.035 kg/m3	1516.2 ± 0.75 m/s
303.15 K, m1 = 0.2001	1002.36 ± 0.036 kg/m3 and 1002.37 ± 0.036 kg/m3	1518.5 ± 0.75 m/s
303.15 K, m1 = 0.2503	1004 ± 0.036 kg/m3	1520.8 ± 0.76 m/s
303.15 K, m1 = 0.3005	1005.62 ± 0.037 kg/m3	1523.1 ± 0.76 m/s and 1523 ± 0.76 m/s
303.15 K, m1 = 0.35	1007.22 ± 0.038 kg/m3 and 1007.21 ± 0.038 kg/m3	1525.3 ± 0.76 m/s
308.15 K, m1 = 0.1002	997.404 ± 0.035 kg/m3 and 997.402 ± 0.035 kg/m3	1524.3 ± 0.75 m/s
308.15 K, m1 = 0.1501	999.052 ± 0.035 kg/m3 and 999.053 ± 0.035 kg/m3	1526.5 ± 0.76 m/s and 1526.4 ± 0.76 m/s
308.15 K, m1 = 0.2001	1000.7 ± 0.035 kg/m3	1528.6 ± 0.76 m/s
308.15 K, m1 = 0.2503	1002.33 ± 0.036 kg/m3	1530.8 ± 0.76 m/s
308.15 K, m1 = 0.3005	1003.93 ± 0.037 kg/m3 and 1003.94 ± 0.037 kg/m3	1533 ± 0.76 m/s and 1532.9 ± 0.76 m/s
308.15 K, m1 = 0.35	1005.51 ± 0.038 kg/m3 and 1005.52 ± 0.038 kg/m3	1535.1 ± 0.76 m/s and 1535 ± 0.76 m/s
318.15 K, m1 = 0.1002	993.545 ± 0.037 kg/m3 and 993.543 ± 0.037 kg/m3	1540.4 ± 0.76 m/s
318.15 K, m1 = 0.1501	995.176 ± 0.036 kg/m3 and 995.177 ± 0.036 kg/m3	1542.3 ± 0.76 m/s and 1542.4 ± 0.76 m/s
318.15 K, m1 = 0.2001	996.806 ± 0.036 kg/m3 and 996.808 ± 0.036 kg/m3	1544.2 ± 0.76 m/s and 1544.3 ± 0.76 m/s
318.15 K, m1 = 0.2503	998.41 ± 0.036 kg/m3 and 998.412 ± 0.036 kg/m3	1546.2 ± 0.77 m/s and 1546.3 ± 0.77 m/s
318.15 K, m1 = 0.3005	1000 ± 0.035 kg/m3	1548.1 ± 0.77 m/s and 1548.2 ± 0.77 m/s
318.15 K, m1 = 0.35	1001.56 ± 0.036 kg/m3	1549.9 ± 0.77 m/s and 1550 ± 0.77 m/s and 1550.1 ± 0.77 m/s

CC(CO)CO [2-methyl-1,3-propanediol] + O
speed of sound
Settings	278.15 K	283.15 K	288.15 K	293.15 K	298.15 K	308.15 K	318.15 K
m1 = 0.1097	1434 ± 0.72 m/s	1454.5 ± 0.73 m/s and 1454.4 ± 0.73 m/s	1472.6 ± 0.74 m/s	1488.5 ± 0.74 m/s	1502.3 ± 0.75 m/s and 1502.4 ± 0.75 m/s	1524.7 ± 0.75 m/s	1540.4 ± 0.76 m/s and 1540.6 ± 0.76 m/s
m1 = 0.1997	1440.3 ± 0.73 m/s and 1440.4 ± 0.73 m/s	1460.3 ± 0.73 m/s	1477.9 ± 0.74 m/s and 1478 ± 0.74 m/s	1493.4 ± 0.74 m/s	1506.9 ± 0.75 m/s	1528.6 ± 0.76 m/s	1543.8 ± 0.76 m/s and 1544 ± 0.76 m/s
m1 = 0.3091	1448 ± 0.73 m/s	1467.3 ± 0.74 m/s	1484.4 ± 0.74 m/s	1499.4 ± 0.75 m/s	1512.4 ± 0.75 m/s	1533.6 ± 0.76 m/s and 1533.3 ± 0.76 m/s	1547.8 ± 0.77 m/s and 1548 ± 0.77 m/s
m1 = 0.3983	1454.1 ± 0.73 m/s	1472.9 ± 0.74 m/s and 1473 ± 0.74 m/s	1489.6 ± 0.75 m/s	1504.1 ± 0.75 m/s and 1504.2 ± 0.75 m/s	1516.8 ± 0.76 m/s	1537.3 ± 0.76 m/s and 1537 ± 0.76 m/s	1551.1 ± 0.77 m/s and 1551.2 ± 0.77 m/s

CCC(CO)(CO)COCC(CC)(CO)CO [3,3,7,7-tetrakis(hydroxymethyl)-5-oxanonane] + O
speed of sound
Settings	278.15 K	283.15 K	288.15 K	293.15 K	298.15 K	308.15 K	318.15 K
m1 = 0.01972	1429.8 ± 0.72 m/s	1450.6 ± 0.73 m/s	1469 ± 0.73 m/s	1485.2 ± 0.74 m/s	1499.3 ± 0.74 m/s	1522.2 ± 0.75 m/s and 1522 ± 0.75 m/s	1538.2 ± 0.76 m/s and 1538.3 ± 0.76 m/s
m1 = 0.04105	1433.6 ± 0.72 m/s and 1433.7 ± 0.72 m/s	1454.1 ± 0.73 m/s	1472.3 ± 0.74 m/s	1488.2 ± 0.74 m/s	1502.1 ± 0.75 m/s	1524.5 ± 0.75 m/s and 1524.3 ± 0.75 m/s	1540.2 ± 0.76 m/s and 1540.3 ± 0.76 m/s
m1 = 0.06045	1437.1 ± 0.73 m/s	1457.3 ± 0.73 m/s	1475.2 ± 0.74 m/s	1490.9 ± 0.74 m/s	1504.6 ± 0.75 m/s	1526.6 ± 0.76 m/s and 1526.4 ± 0.76 m/s	1542 ± 0.76 m/s and 1542.1 ± 0.76 m/s
m1 = 0.079	1440.3 ± 0.73 m/s	1460.3 ± 0.73 m/s	1478 ± 0.74 m/s	1493.4 ± 0.74 m/s	1506.9 ± 0.75 m/s	1528.6 ± 0.76 m/s and 1528.4 ± 0.76 m/s	1543.7 ± 0.76 m/s and 1543.8 ± 0.76 m/s

CCC(CO)(CO)CO [2-ethyl-2-(hydroxymethyl)-1,3-propanediol] + O
speed of sound
Settings	278.15 K	283.15 K	288.15 K	293.15 K	298.15 K	308.15 K	318.15 K
m1 = 0.09974	1436 ± 0.72 m/s and 1436.1 ± 0.72 m/s	1456.4 ± 0.73 m/s and 1456.5 ± 0.73 m/s	1474.5 ± 0.74 m/s	1490.3 ± 0.74 m/s	1504.1 ± 0.75 m/s	1526.5 ± 0.76 m/s and 1526.2 ± 0.76 m/s	1542.2 ± 0.76 m/s and 1542 ± 0.76 m/s
m1 = 0.1998	1445.7 ± 0.73 m/s	1465.3 ± 0.74 m/s and 1465.4 ± 0.74 m/s	1482.8 ± 0.74 m/s	1498 ± 0.75 m/s	1511.3 ± 0.75 m/s	1532.7 ± 0.76 m/s and 1532.4 ± 0.76 m/s	1547.6 ± 0.76 m/s and 1547.4 ± 0.76 m/s
m1 = 0.3	1455.1 ± 0.74 m/s	1474.1 ± 0.74 m/s	1490.9 ± 0.75 m/s	1505.6 ± 0.75 m/s	1518.3 ± 0.76 m/s	1538.9 ± 0.76 m/s and 1538.5 ± 0.76 m/s	1552.8 ± 0.77 m/s and 1552.7 ± 0.77 m/s
m1 = 0.3961	1464 ± 0.74 m/s	1482.3 ± 0.75 m/s and 1482.4 ± 0.75 m/s	1498.5 ± 0.75 m/s	1512.7 ± 0.76 m/s	1524.9 ± 0.76 m/s	1544.6 ± 0.77 m/s and 1544.3 ± 0.77 m/s	1557.4 ± 0.77 m/s and 1557.6 ± 0.77 m/s
m1 = 0.5048	1473.8 ± 0.75 m/s	1491.4 ± 0.75 m/s	1507 ± 0.76 m/s	1520.5 ± 0.76 m/s	1532.2 ± 0.77 m/s	1550.9 ± 0.77 m/s and 1550.5 ± 0.77 m/s	1562.8 ± 0.78 m/s and 1563 ± 0.78 m/s

Reference: the NIST ThermoML archive (doi:10.1021/je300175w)
